Like-named read-outs stand apart in the source and are kept apart here.
Assays:
[1] = biological target: T1, eeAChE (AChE from Electrophorus electricus) (Electrophorus electricus, UniProt O42275); test: biochemical; conditions: for inhibition at 10 µM: at 10 μM inhibitor concentration, mean ± SD, read-out: eeAChE % Inh.; for IC50: AChE from electric eel, mean ± SEM, at least three experiments
T1 construct: purchased Sigma-Aldrich

[2] = biological target: eqBuChE (BuChE from equine serum) (Equus caballus, UniProt P81908); test: biochemical; conditions: for inhibition at 10 µM: at 10 μM inhibitor concentration, mean ± SD, read-out: eqBuChE % Inh.
[3] = biological target: T2, human recombinant BACE-1 (hBACE-1) (Homo sapiens, UniProt P56817); test: BACE-1 FRET assay (PanVera kit); format: biochemical; conditions: at 50 μM inhibitor concentration; mean ± SD; read-out: hBACE-1 % Inh.
T2 construct: purchased PanVera BACE-1 FRET Assay Kit, bought from Life Technologies Polska Sp. z o.o; host or cells: baculovirus expression

[4] = biological target: T3, Aβ1–42 peptide aggregation (Homo sapiens, UniProt P05067); test: Thioflavin T-based fluorometric assay of Aβ aggregation; format: biochemical; conditions: read-out: Aβ-Aggr. % Inh.
T3 construct: Recombinant human HFIP-pretreated Aβ1–42 peptide; purchased Merck Millipore, Darmstadt, Germany

human AChE = system: human AChE; design: method as in PMID 25621991; conditions: cited from earlier work
Aβ aggregation = system: Aβ aggregation; design: method as in PMID 25621991; conditions: at 10 μM; cited from earlier work
Aβ toxicity = system: Aβ toxicity; design: method as in PMID 25621991; conditions: at 1 μM and 3 μM; cited from earlier work
[5] = at 10 μM inhibitor concentration, 1.5 μM Aβ1–42, mean ± SD

eqBuChE (BuChE from equine serum), sequence (P81908 whole entry): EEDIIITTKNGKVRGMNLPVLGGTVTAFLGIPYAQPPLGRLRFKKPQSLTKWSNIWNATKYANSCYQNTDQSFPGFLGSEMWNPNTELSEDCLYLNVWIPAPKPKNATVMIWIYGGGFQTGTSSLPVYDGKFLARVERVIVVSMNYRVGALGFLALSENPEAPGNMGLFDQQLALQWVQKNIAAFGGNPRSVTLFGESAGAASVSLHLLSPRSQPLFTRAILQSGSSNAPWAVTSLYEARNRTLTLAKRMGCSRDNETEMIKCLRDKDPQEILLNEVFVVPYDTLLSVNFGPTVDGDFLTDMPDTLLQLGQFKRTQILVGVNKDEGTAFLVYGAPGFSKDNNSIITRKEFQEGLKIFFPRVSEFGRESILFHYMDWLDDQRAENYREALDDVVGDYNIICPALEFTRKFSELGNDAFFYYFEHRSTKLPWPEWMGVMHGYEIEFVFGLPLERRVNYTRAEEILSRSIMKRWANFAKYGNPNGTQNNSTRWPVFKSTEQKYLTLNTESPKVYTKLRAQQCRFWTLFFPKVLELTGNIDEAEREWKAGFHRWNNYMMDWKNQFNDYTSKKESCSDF
T2 sequence (P56817 46-501): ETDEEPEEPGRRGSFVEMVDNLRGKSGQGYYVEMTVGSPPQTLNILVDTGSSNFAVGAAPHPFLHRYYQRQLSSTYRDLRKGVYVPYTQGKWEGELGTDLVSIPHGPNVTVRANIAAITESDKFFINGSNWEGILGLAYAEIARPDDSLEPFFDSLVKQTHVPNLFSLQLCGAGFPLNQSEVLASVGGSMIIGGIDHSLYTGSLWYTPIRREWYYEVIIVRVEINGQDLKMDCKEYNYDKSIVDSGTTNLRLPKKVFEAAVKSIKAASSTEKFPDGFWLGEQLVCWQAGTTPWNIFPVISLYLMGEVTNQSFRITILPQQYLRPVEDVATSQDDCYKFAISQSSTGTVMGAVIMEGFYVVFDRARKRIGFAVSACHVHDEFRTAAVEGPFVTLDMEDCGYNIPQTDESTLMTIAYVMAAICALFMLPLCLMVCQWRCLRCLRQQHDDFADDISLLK
T3 sequence (P05067 672-713 limits assumed): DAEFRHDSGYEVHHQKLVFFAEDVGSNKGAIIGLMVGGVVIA
T1 sequence (O42275 24-633): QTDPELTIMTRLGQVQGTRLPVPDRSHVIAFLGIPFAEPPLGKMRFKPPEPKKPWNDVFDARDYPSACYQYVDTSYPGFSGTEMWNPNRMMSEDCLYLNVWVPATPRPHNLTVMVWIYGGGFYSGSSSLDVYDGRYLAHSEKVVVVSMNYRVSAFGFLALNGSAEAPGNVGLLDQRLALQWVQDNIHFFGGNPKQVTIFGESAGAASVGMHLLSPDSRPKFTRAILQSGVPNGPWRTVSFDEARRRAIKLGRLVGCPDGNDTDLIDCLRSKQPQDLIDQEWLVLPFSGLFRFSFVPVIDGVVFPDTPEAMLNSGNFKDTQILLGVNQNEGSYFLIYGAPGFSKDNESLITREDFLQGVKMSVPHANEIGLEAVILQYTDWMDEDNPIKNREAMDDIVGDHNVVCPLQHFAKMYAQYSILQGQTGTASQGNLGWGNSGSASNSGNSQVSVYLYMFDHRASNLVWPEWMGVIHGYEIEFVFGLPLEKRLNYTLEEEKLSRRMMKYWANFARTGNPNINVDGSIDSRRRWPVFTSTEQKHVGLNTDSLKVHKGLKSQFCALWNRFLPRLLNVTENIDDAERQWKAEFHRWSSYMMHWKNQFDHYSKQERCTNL

For `O=C1c2ccccc2C(=O)N1CC(O)CNCc1ccccc1` (centres unmarked) [Compound 1, 2-(3-(Benzylamino)-2-hydroxypropyl)isoindoline-1,3-dione], which inhibition at 10 µM [1] is on record?
Its inhibition at 10 µM is 11.5%.

What about the inhibition at 10 µM [2] of the same compound?
The inhibition at 10 µM was 14.1%.

What about the inhibition at 50 µM [3] of the same compound?
Its inhibition at 50 µM is 37.3%.

What about the inhibition at 10 µM [4, 5] of the same compound?
Its inhibition at 10 µM is under 10%.

What does the source list for `O=C1c2ccccc2C(=O)N1CC(O)CNCc1ccccc1F` (centres unmarked) [Compound 2, 2-(3-((2-Fluorobenzyl)amino)-2-hydroxypropyl)isoindoline-1,3-dione]?
inhibition at 10 µM [1]: 28.1%; inhibition at 10 µM [2]: 19.5%; inhibition at 50 µM [3]: 39.6%; inhibition at 10 µM [4, 5]: 21.1%

What does the source list for `O=C1c2ccccc2C(=O)N1CC(O)CNCc1ccccc1C(F)(F)F` (centres unmarked) [Compound 3, 2-(2-Hydroxy-3-((2-(trifluoromethyl)benzyl)amino)propyl)isoindoline-1,3-dione]?
inhibition at 10 µM [1]: 11.8%; inhibition at 10 µM [2]: < 10%; inhibition at 50 µM [3]: 41.8%; inhibition at 10 µM [4, 5]: < 10%

For `O=C1c2ccccc2C(=O)N1CC(O)CNCc1cccc(Cl)c1` (centres unmarked) [Compound 4, 2-(3-((3-Chlorobenzyl)amino)-2-hydroxypropyl)isoindoline-1,3-dione], which inhibition at 10 µM [1] is on record?
Its inhibition at 10 µM is under 10%.

And the inhibition at 10 µM [2]?
Its inhibition at 10 µM is 24.1%.

What about the inhibition at 50 µM [3] of the same compound?
Its inhibition at 50 µM is 34.1%.

What about the inhibition at 10 µM [4, 5] of the same compound?
Its inhibition at 10 µM is under 10%.

Which results are given for `COc1ccccc1CNCC(O)CN1C(=O)c2ccccc2C1=O` (centres unmarked) [Compound 5, 2-(2-Hydroxy-3-((2-methoxybenzyl)amino)propyl)isoindoline-1,3-dione]?
inhibition at 10 µM [1]: < 10%; IC50 ([2]; BuChE from horse serum, mean ± SEM, at least three experiments): 7860 ± 290 nM; inhibition at 50 µM [3]: 39.2%; inhibition at 10 µM [4, 5]: 19.9%

With `Cc1ccc(CNCC(O)CN2C(=O)c3ccccc3C2=O)cc1` (centres unmarked) [Compound 6, 2-(2-Hydroxy-3-((4-methylbenzyl)amino)propyl)isoindoline-1,3-dione] as the compound, how does the inhibition at 10 µM [1] read?
The inhibition at 10 µM was under 10%.

And the inhibition at 10 µM [2]?
The inhibition at 10 µM was 11.6%.

What about the inhibition at 50 µM [3] of the same compound?
The inhibition at 50 µM was 45%.

And the inhibition at 10 µM [4, 5]?
Its inhibition at 10 µM is under 10%.

Which results are given for `COc1ccc(CNCC(O)CN2C(=O)c3ccccc3C2=O)cc1` (centres unmarked) [Compound 7, 2-(2-Hydroxy-3-((4-methoxybenzyl)amino)propyl)isoindoline-1,3-dione]?
inhibition at 10 µM [1]: < 10%; inhibition at 10 µM [2]: 19.1%; inhibition at 50 µM [3]: 35.1%; inhibition at 10 µM [4, 5]: < 10%

With `O=C1c2ccccc2C(=O)N1CC(O)CNCc1ccc(Cl)cc1Cl` (centres unmarked) [Compound 8, 2-(3-((2,4-Dichlorobenzyl)amino)-2-hydroxypropyl)isoindoline-1,3-dione] as the compound, how does the inhibition at 10 µM [1] read?
Its inhibition at 10 µM is under 10%.

And the inhibition at 10 µM [2]?
Its inhibition at 10 µM is 21.7%.

What about the inhibition at 50 µM [3] of the same compound?
The inhibition at 50 µM was 37.2%.

And the inhibition at 10 µM [4, 5]?
The inhibition at 10 µM was under 10%.

Which inhibition at 10 µM [1] does the source give for `O=C1c2ccccc2C(=O)N1CCC(O)CNCc1ccccc1` (centres unmarked) [Compound 9, 2-(4-(Benzylamino)-3-hydroxybutyl)isoindoline-1,3-dione] here?
The inhibition at 10 µM was under 10%.

And the inhibition at 10 µM [2]?
The inhibition at 10 µM was under 10%.

And the inhibition at 50 µM [3]?
The inhibition at 50 µM was under 10%.

What about the inhibition at 10 µM [4, 5] of the same compound?
Its inhibition at 10 µM is under 10%.

Which results are given for `COc1ccccc1CNCC(O)CCN1C(=O)c2ccccc2C1=O` (centres unmarked) [Compound 10, 2-(3-Hydroxy-4-((2-methoxybenzyl)amino)butyl)isoindoline-1,3-dione]?
inhibition at 10 µM [1]: 32.7%; inhibition at 10 µM [2]: 17.8%; inhibition at 50 µM [3]: 24.4%; inhibition at 10 µM [4, 5]: < 10%

For `COc1ccc(CNCC(O)CCN2C(=O)c3ccccc3C2=O)cc1` (centres unmarked) [Compound 11, 2-(3-Hydroxy-4-((4-methoxybenzyl)amino)butyl)isoindoline-1,3-dione], which inhibition at 10 µM [1] is on record?
Its inhibition at 10 µM is under 10%.

What about the inhibition at 10 µM [2] of the same compound?
The inhibition at 10 µM was under 10%.

What about the inhibition at 50 µM [3] of the same compound?
Its inhibition at 50 µM is 34.8%.

What about the inhibition at 10 µM [4, 5] of the same compound?
Its inhibition at 10 µM is under 10%.

What does the source list for `O=C1c2ccccc2C(=O)N1CCCC(O)CNCc1ccccc1` (centres unmarked) [Compound 12, 2-(5-(Benzylamino)-4-hydroxypentyl)isoindoline-1,3-dione]?
IC50 [1]: 3320 ± 150 nM; inhibition at 10 µM [2]: 14.1%; inhibition at 50 µM [3]: 43.7%; inhibition at 10 µM [4, 5]: 24.9%

For `COc1ccccc1CNCC(O)CCCN1C(=O)c2ccccc2C1=O` (centres unmarked) [Compound 13, 2-(4-Hydroxy-5-((2-methoxybenzyl)amino)pentyl)isoindoline-1,3-dione], which IC50 [1] is on record?
The IC50 was 11100 ± 490 nM.

What about the inhibition at 10 µM [2] of the same compound?
The inhibition at 10 µM was 26.2%.

What about the inhibition at 50 µM [3] of the same compound?
Its inhibition at 50 µM is 37.1%.

And the inhibition at 10 µM [4, 5]?
Its inhibition at 10 µM is under 10%.

Which IC50 [1] does the source give for `O=C1c2ccccc2C(=O)N1CCCCC(O)CNCc1ccccc1` (centres unmarked) [Compound 14, 2-(6-(Benzylamino)-5-hydroxyhexyl)isoindoline-1,3-dione] here?
Its IC50 is 2130 ± 70 nM.

And the inhibition at 10 µM [2]?
The inhibition at 10 µM was 36%.

And the inhibition at 50 µM [3]?
Its inhibition at 50 µM is 42.1%.

And the inhibition at 10 µM [4, 5]?
The inhibition at 10 µM was under 10%.

Which results are given for `COc1ccccc1CNCC(O)CCCCN1C(=O)c2ccccc2C1=O` (centres unmarked) [Compound 15, 2-(5-Hydroxy-6-((2-methoxybenzyl)amino)hexyl)isoindoline-1,3-dione]?
IC50 [1]: 1950 ± 60 nM; inhibition at 10 µM [2]: 36%; inhibition at 50 µM [3]: 15.7%; inhibition at 10 µM [4, 5]: < 10%

For `O=C1c2ccccc2C(=O)N1CCCCCNCc1ccc(F)cc1` [Compound III, 2-(5-(4-flurobenzylamino)pentyl)isoindoline-1,3-dione], which IC50 (human AChE) is on record?
The IC50 was 268 nM.

And the anti-Aβ aggregation activity (Aβ aggregation)?
The anti-Aβ aggregation activity was 66%.

And the “neuroprotective effect against Aβ toxicity” value (Aβ toxicity)?
The value was “neuroprotective effect”.

With `COc1cc2c(cc1OC)C(=O)C(CC1CCN(Cc3ccccc3)CC1)C2` (centres unmarked) [Donepezil, reference compound] as the compound, how does the inhibition at 10 µM [4] read?
The inhibition at 10 µM was 13.8%.

Which inhibition at 10 µM [4, 5] does the source give for `Oc1ccc(/C=C/c2cc(O)cc(O)c2)cc1` [Resveratrol, reference compound] here?
Its inhibition at 10 µM is 78.5%.

From paper PMC6017481, “Design, Synthesis, and Biological Evaluation of 2-(Benzylamino-2-Hydroxyalkyl)Isoindoline-1,3-Diones Derivatives as Potential Disease-Modifying Multifunctional Anti-Alzheimer Agents” (Molecules : A Journal of Synthetic Chemistry and Natural …, 2018)
